The results in this text go back to paper PMC7409368 (Free radical biology & medicine, 2018).

The experiment deals with T1, Drosophila MSRA (Drosophila melanogaster, UniProt P08761, C232S/C246S).
T1 sequence (P08761 2-246 C232S/C246S): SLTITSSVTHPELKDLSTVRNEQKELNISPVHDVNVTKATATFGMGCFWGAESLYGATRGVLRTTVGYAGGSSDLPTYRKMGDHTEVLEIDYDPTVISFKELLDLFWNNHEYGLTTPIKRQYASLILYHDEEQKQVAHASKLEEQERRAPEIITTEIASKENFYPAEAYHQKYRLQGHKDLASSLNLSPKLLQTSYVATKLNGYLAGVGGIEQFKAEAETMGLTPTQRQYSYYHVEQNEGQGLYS
Briefly: intact protein mass spectrometry after incubation with MetO. In kind it is biochemical. The following applies: no dithiothreitol; oxidation of active site cysteine.

For the compound `C[S+]([O-])CC[C@H](N)C(=O)O` (stereo partly drawn) [MetO, L-Methionine Sulfoxide], the “intact protein mass spectrometry after incubation with MetO” value was “when the C232S/C246S mutant was incubated with MetO, we observed that the mass”.
